From the supplement of paper PMC10307832

What was measured:
Experiment in all cases: relative viability (nuclei count vs DMSO), 5 days (fraction); higher = more cells survive
DM3189 + Decitabine = compound: C1CN(CCN1)C2=CC=C(C=C2)C3=CN4C(=C(C=N4)C5=CC=NC6=CC=CC=C56)N=C3 [DM3189] + Nc1ncn([C@H]2C[C@H](O)[C@@H](CO)O2)c(=O)n1 [Decitabine] (partner 2 µM)
Procedure, shortened: (§1)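 Lung cancer cell lines were pin-tool dosed in 1536-well plates on the day after seeding, with either a lone drug or a fixed anchor-drug dose plus five library-drug doses (not always all listed) in √10 steps. Nuclei were counted on 4× images after 5 days. Relative viability is the ratio of treated-well to vehicle-well nuclei counts, with each value a median of duplicate plates.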

DM3189 + Dasatinib = compound: C1CN(CCN1)C2=CC=C(C=C2)C3=CN4C(=C(C=N4)C5=CC=NC6=CC=CC=C56)N=C3 [DM3189] + Cc1nc(Nc2ncc(C(=O)Nc3c(C)cccc3Cl)s2)cc(N2CCN(CCO)CC2)n1 [Dasatinib] (partner 0.075 µM)
Procedure, shortened: as §1

DM3189 + Tozasertib = compound: C1CN(CCN1)C2=CC=C(C=C2)C3=CN4C(=C(C=N4)C5=CC=NC6=CC=CC=C56)N=C3 [DM3189] + Cc1cc(Nc2cc(N3CCN(C)CC3)nc(Sc3ccc(NC(=O)C4CC4)cc3)n2)n[nH]1 [Tozasertib] (partner 0.1 µM)
Procedure, shortened: as §1

DM3189 + Foretinib = compound: C1CN(CCN1)C2=CC=C(C=C2)C3=CN4C(=C(C=N4)C5=CC=NC6=CC=CC=C56)N=C3 [DM3189] + COc1cc2c(Oc3ccc(NC(=O)C4(C(=O)Nc5ccc(F)cc5)CC4)cc3F)ccnc2cc1OCCCN1CCOCC1 [Foretinib] (partner 0.25 µM)
Procedure, shortened: as §1

DM3189 + Navitoclax = compound: C1CN(CCN1)C2=CC=C(C=C2)C3=CN4C(=C(C=N4)C5=CC=NC6=CC=CC=C56)N=C3 [DM3189] + CC1(C)CCC(c2ccc(Cl)cc2)=C(CN2CCN(c3ccc(C(=O)NS(=O)(=O)c4ccc(N[C@H](CCN5CCOCC5)CSc5ccccc5)c(S(=O)(=O)C(F)(F)F)c4)cc3)CC2)C1 [Navitoclax] (partner 0.5 µM)
Procedure, shortened: as §1

| Cell Line | relative viability (DM3189 + Decitabine; first compound 0.08 µM) | relative viability (DM3189 + Decitabine; first compound 0.253 µM) | relative viability (DM3189 + Decitabine; first compound 0.8 µM) | relative viability (DM3189 + Decitabine; first compound 2.53 µM) | relative viability (DM3189 + Dasatinib; first compound 0.08 µM) | relative viability (DM3189 + Dasatinib; first compound 0.253 µM) | relative viability (DM3189 + Dasatinib; first compound 0.8 µM) | relative viability (DM3189 + Dasatinib; first compound 2.53 µM) | relative viability (DM3189 + Tozasertib; first compound 0.08 µM) | relative viability (DM3189 + Tozasertib; first compound 0.253 µM) | relative viability (DM3189 + Tozasertib; first compound 0.8 µM) | relative viability (DM3189 + Tozasertib; first compound 2.53 µM) | relative viability (DM3189 + Foretinib; first compound 0.08 µM) | relative viability (DM3189 + Foretinib; first compound 0.253 µM) | relative viability (DM3189 + Foretinib; first compound 0.8 µM) | relative viability (DM3189 + Foretinib; first compound 2.53 µM) | relative viability (DM3189 + Navitoclax; first compound 0.08 µM) | relative viability (DM3189 + Navitoclax; first compound 0.253 µM) | relative viability (DM3189 + Navitoclax; first compound 0.8 µM) | relative viability (DM3189 + Navitoclax; first compound 2.53 µM) |
| --- | --- | --- | --- | --- | --- | --- | --- | --- | --- | --- | --- | --- | --- | --- | --- | --- | --- | --- | --- | --- |
| NCI-H2405 | 0.744 | 0.744 | 0.691 | 0.756 | 0.215 | 0.204 | 0.201 | 0.214 | 0.791 | 0.7 | 0.741 | 0.692 | 1.04 | 1.06 | 1.02 | 1.05 | 0.758 | 0.802 | 0.873 | 0.89 |
| NCI-H3122 | 0.362 | 0.353 | 0.372 | 0.367 | 0.853 | 0.639 | 0.757 | 0.708 | 0.38 | 0.35 | 0.333 | 0.382 | 0.98 | 0.909 | 0.735 | 0.805 | 0.97 | 0.968 | 0.957 | 0.824 |
| PC-3 [JPC-3] | 0.848 | 0.802 | 0.797 | 0.797 | 1.12 | 1.07 | 1.16 | 0.966 | 0.84 | 0.968 | 0.848 | 0.774 | 1.09 | 1.1 | 0.993 | 1.08 | 0.826 | 0.83 | 0.859 | 0.892 |
| PC-14 | 0.303 | 0.237 | 0.21 | 0.253 | 0.295 | 0.239 | 0.159 | 0.16 | 0.547 | 0.522 | 0.567 | 0.606 | 1.02 | 0.985 | 0.876 | 1.07 | 1.04 | 1.03 | 1 | 1.08 |
| RERF-LC-KJ | 0.754 | 0.615 | 0.757 | 0.618 | 1.03 | 0.891 | 0.744 | 0.943 | 0.533 | 0.456 | 0.466 | 0.43 | 1.03 | 0.904 | 0.927 | 0.97 | 0.997 | 1.35 | 0.81 | 1.09 |
| SK-LU-1 | 0.567 | 0.585 | 0.537 | 0.451 | 0.143 | 0.109 | 0.104 | 0.136 | 0.241 | 0.204 | 0.248 | 0.219 | 0.77 | 0.66 | 0.492 | 0.479 | 0.686 | 0.595 | 0.564 | 0.397 |
| SK-MES-1 | 0.461 | 0.418 | 0.317 | 0.361 | 0.322 | 0.263 | 0.265 | 0.237 | 0.901 | 0.831 | 0.687 | 0.87 | 0.849 | 0.701 | 0.698 | 0.76 | 1.21 | 1.28 | 1.08 | 1.18 |
| SW 1573 | 0.616 | 0.381 | 0.46 | 0.263 | 0.741 | 0.389 | 0.46 | 0.382 | 0.212 | 0.171 | 0.142 | 0.153 | 1 | 0.737 | 1.05 | 0.99 | 1.11 | 0.964 | 0.901 | 1.25 |
| UMC-11 | 0.616 | 0.506 | 0.602 | 0.511 | 0.467 | 0.429 | 0.467 | 0.401 | 0.189 | 0.201 | 0.199 | 0.21 | 1.01 | 0.975 | 0.988 | 1.02 | 0.287 | 0.322 | 0.295 | 0.265 |
